Laboratory results taken from patent publication JPH07118153A, “抗ウレアーゼ剤” (Eisai Co Ltd, priority 1993, dated 1995).

Columns and labels:
[1] = target: T1, H. pylori-produced urease [H.pylori産生ウレアーゼ] (Helicobacter pylori, UniProt P69996); details: cited from earlier work; for inhibition of H. pylori-produced urease: Antimicrobial Agents and Chemotherapy, 37(4), 769-774, 1993
Target sequence in this assay (P69996 whole entry): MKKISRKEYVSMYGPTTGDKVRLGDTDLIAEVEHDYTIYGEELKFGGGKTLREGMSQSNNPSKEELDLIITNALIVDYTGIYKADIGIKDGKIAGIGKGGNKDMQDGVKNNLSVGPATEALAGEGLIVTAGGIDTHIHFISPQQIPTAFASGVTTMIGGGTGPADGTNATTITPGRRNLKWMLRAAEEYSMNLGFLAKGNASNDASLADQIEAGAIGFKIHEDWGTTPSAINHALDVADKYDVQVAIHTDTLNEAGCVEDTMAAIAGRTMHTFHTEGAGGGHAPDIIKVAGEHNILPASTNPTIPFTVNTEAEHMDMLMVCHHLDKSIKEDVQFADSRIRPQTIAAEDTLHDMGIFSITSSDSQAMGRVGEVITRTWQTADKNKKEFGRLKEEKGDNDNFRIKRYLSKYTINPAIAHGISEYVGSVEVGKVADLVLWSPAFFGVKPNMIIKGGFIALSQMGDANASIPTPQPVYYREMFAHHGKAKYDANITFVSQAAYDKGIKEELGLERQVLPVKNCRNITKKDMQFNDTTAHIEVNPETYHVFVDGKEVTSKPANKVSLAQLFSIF
Target sequence in this assay (P14916 whole entry, further chain): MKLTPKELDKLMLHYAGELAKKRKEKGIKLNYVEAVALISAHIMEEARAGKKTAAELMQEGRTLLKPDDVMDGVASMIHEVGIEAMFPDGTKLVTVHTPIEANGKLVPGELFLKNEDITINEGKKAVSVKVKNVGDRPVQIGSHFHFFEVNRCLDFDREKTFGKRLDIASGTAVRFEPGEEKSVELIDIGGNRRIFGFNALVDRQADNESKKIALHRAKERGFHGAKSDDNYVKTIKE

[2] = target: T1, H. pylori-produced urease [H.pylori産生ウレアーゼ]; type: biochemical, Helicobacter pylori (ATCC43504)
Target sequence in this assay (P69996 whole entry, looked up): as the sequence (P69996 whole entry) above

[3] = target: jack bean urease [なた豆ウレアーゼ] (Canavalia ensiformis, UniProt P07374); assay: Inhibition of jack bean urease (inhibition test example 1); type: biochemical; details: from tables 2 and 4
jack bean urease [なた豆ウレアーゼ], sequence (P07374 whole entry, looked up): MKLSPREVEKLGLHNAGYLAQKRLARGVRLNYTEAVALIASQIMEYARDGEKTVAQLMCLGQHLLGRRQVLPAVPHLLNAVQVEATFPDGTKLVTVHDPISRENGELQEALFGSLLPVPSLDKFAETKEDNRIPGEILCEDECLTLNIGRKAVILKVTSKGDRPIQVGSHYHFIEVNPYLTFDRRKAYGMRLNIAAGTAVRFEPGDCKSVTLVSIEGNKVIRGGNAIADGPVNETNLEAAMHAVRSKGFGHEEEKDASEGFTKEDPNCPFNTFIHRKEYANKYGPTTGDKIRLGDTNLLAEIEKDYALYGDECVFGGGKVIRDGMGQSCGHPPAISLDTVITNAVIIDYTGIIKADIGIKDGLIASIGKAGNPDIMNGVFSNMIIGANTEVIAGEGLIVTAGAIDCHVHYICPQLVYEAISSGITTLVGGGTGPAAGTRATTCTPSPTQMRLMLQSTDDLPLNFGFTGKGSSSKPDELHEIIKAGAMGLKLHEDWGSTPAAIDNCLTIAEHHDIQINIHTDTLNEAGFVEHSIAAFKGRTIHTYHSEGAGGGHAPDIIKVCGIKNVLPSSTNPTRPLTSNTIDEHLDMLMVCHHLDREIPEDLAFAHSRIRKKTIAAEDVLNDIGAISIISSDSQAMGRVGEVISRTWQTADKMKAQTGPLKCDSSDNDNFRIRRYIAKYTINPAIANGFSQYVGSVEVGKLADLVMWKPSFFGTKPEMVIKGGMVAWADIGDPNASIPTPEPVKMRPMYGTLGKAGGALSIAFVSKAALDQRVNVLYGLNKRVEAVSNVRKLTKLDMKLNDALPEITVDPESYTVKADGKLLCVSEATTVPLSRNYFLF

[4] = tested on: a wide range of ureases [幅広い種類のウレアーゼ]; assay: Urease inhibition across ureases (tables 2 and 4 taken together); type: biochemical; details: from tables 2 and 4
[5] = Acute toxicity test, single dose, intravenous and oral; type: in vivo, Slc:SD rats and Slc:ICR mice; details: rats and mice

Row | Structure (SMILES) | inhibition of H. pylori-produced urease [1] | anti-urease activity relative to acetohydroxamic acid ([1]; disclosed in Antimicrobial Agents and Chemotherapy, compared with acetohydroxamic acid) | H. pylori-produced urease inhibitory action [2] | activity relative to control substance (times stronger) ([2]; H. pylori-produced urease, control substance acetohydroxamic acid) | inhibitory activity on H. pylori-produced urease, compared with reference substances ([2]; versus acetohydroxamic acid, caprylohydroxamic acid, nicotinohydroxamic acid, benzohydroxamic acid, omeprazole and lansoprazole, from tables 2, 3 and 4) | inhibitory action on jack bean urease [3] | inhibitory action on a wide range of ureases [4] | selectivity ratio ([5]; in vivo, intravenous and oral, multiple of the clinical dose by oral administration, read-out: LD50 values relative to the oral clinical dose) | safety ([5]; judged from LD50 values)
1 | COc1ccc2[nH]c([S+]([O-])Cc3ncc(C)c(OC)c3C)nc2c1 (stereo not shown) [オメプラゾール, 5−メトキシ−2−(4−メトキシ−3,5−ジメチルピリジン−2−イル)メチルスルフィニル−1H−ベンズイミダゾール] | 阻害する |  |  |  |  |  |  |  | 
2 | Cc1c(OCC(F)(F)F)ccnc1C[S+]([O-])c1nc2ccccc2[nH]1 (stereo not shown) [ランソプラゾール, 2−[3−メチル−4−(2,2,2−トリフルオロエトキシ)ピリジン−2−イル]メチルスルフィニル−1H−ベンズイミダゾール] | 阻害する | ~2 fold |  |  |  |  |  |  | 
3 | COCCCOc1ccnc(C[S+]([O-])c2nc3ccccc3[nH]2)c1C (stereo not shown) [本発明化合物, 2−[4−(3−メトキシプロポキシ)−3−メチルピリジン−2−イル]メチルスルフィニル−1H−ベンズイミダゾール] |  |  | 阻害作用を有している | ~100 fold | 優れた阻害活性を有する | 阻害作用も有しており | 阻害作用を示した | ≥ 5000 | 安全性は極めて高い
